# Measured values: patent US11834698B2, “Process for determining enzyme activity in a cell by activity-based reporter gene technology (ABRGT)” (INDIAN INSTITUTE OF SCIENCE EDUCATION AND RESEARCH, priority 2018, dated 2023)
# Molecular target: T1, recombinant human caspase-3 His tagged enzyme (rcaspase-3) (Homo sapiens, UniProt P42574)
# T1 construct: The purified rcaspase-3 was confirmed with the two peaks obtained at 12939 and 16598 Da; His tag; made in house
# T1 sequence (P42574 29-175 limits assumed): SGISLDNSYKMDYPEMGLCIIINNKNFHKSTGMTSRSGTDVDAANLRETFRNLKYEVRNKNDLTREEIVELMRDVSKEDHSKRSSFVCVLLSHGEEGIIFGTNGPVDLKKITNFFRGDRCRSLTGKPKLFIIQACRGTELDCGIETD
# T1 sequence (P42574 176-277 limits assumed): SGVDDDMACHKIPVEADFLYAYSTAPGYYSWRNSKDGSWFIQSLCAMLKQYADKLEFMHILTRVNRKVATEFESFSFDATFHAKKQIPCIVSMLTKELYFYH
# Experiment: In-gel fluorescence labelling of purified rcaspase-3 by fABP
# Assay type: binding
# Protocol: FIG. 4 depicts (a) labelling of purified rcaspase-3 (2 μM) by probe 1 at a concentration of 100, 500 and 2000 nM. (b) integrated band intensity values. (c) The specificity of probe 1 (1 μM) to label active enzyme (500 nM); (lane 1: active rcaspase-3 in the presence of probe 1, lane 2: thermally denatured rcaspase-3 in the presence of probe 1.
# To establish AbRGT, the specific activation of caspase-3 GFPspark was monitored, in the apoptosis signalling pathway, using fABP, Rhodamine-VAD-fluoromethyl ketone (Rh-VAD-FMK) probe (probe 1) (Micale et al., JACS, 2004) [FIG. 2(a)] in MCF-7 cells. Here, rhodamine is the fluorescent tag, VAD is the peptide recognition sequence for caspases and FMK is the reactive warhead for targeting pan-caspases. Before monitoring the specific caspase-3 activation in the native cellular environment, the active-site labelling of probe 1 to the caspase-3 enzyme in in vitro conditions was first validated. The recombinant human caspase-3 His tagged enzyme (rcaspase-3) was expressed and purified using Ni-NTA column chromatography (Stennicke et al., Methods, 1999). […] The labelled enzyme samples were then separated on a 12% SDS-PAGE gel and were visualized using an in-gel fluorescence scanner. […]
substance,measurement,setting,value
Rhodamine-VAD-fluoromethyl ketone [probe 1],fluorescence signal after thermal denaturation of rcaspase-3 before labelling,"probe 1 μM, enzyme 500 nM",completely abolished
same,concentration at which probe effectively labelled rcaspase-3,"rcaspase-3 2 μM, probe 100, 500, 2000 nM, SDS-PAGE in-gel fluorescence",≤ 100 nM
